Where two headings read alike, the source gives them in different places.
How the values were obtained:
Type in all cases: cell-based, human
[1] = test system: 786-0 (renal); assay: NCI anticancer screen, SRB assay, 48 h; settings: Homo sapiens
Summary of the method: (§1)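 Compounds were tested across fifty three human cancer cell lines from nine tumour types. Each line got a dose-response curve of at least five concentrations at 10-fold dilutions, with continuous drug exposure and sulforhodamine B protein staining to estimate viability or growth.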

[2] = test system: A498 (renal); assay: NCI anticancer screen, SRB assay, 48 h; settings: Homo sapiens
Summary of the method: as §1

[3] = test system: A549/ATCC (non-small cell lung); assay: NCI anticancer screen, SRB assay, 48 h; settings: Homo sapiens
Summary of the method: as §1

[4] = test system: HCT-116 (colon); assay: NCI anticancer screen, SRB assay, 48 h; settings: Homo sapiens
Summary of the method: as §1

[5] = test system: MCF7 (breast); assay: NCI anticancer screen, SRB assay, 48 h; settings: Homo sapiens
Summary of the method: as §1

[6] = test system: MDA-MB-435 (melanoma); assay: NCI anticancer screen, SRB assay, 48 h; settings: Homo sapiens
Summary of the method: as §1

[7] = test system: NCI-H322M (non-small cell lung); assay: NCI anticancer screen, SRB assay, 48 h; settings: Homo sapiens
Summary of the method: as §1

[8] = test system: OVCAR-4 (ovarian); assay: NCI anticancer screen, SRB assay, 48 h; settings: Homo sapiens
Summary of the method: as §1

[9] = test system: PC-3 (prostate); assay: NCI anticancer screen, SRB assay, 48 h; settings: Homo sapiens
Summary of the method: as §1

[10] = test system: RPMI-8226 (leukemia cell line); assay: NCI anticancer screen, SRB assay, 48 h; settings: Homo sapiens
Summary of the method: as §1

[11] = test system: RXF 393 (renal); assay: NCI anticancer screen, SRB assay, 48 h; settings: Homo sapiens
Summary of the method: as §1

[12] = test system: SF-295 (CNS); assay: NCI anticancer screen, SRB assay, 48 h; settings: Homo sapiens
Summary of the method: as §1

[13] = test system: SK-MEL-28 (melanoma); assay: NCI anticancer screen, SRB assay, 48 h; settings: Homo sapiens
Summary of the method: as §1

[14] = test system: SK-MEL-5 (melanoma); assay: NCI anticancer screen, SRB assay, 48 h; settings: Homo sapiens
Summary of the method: as §1

[15] = test system: SW-620 (colon); assay: NCI anticancer screen, SRB assay, 48 h; settings: Homo sapiens
Summary of the method: as §1

[16] = test system: U251 (CNS); assay: NCI anticancer screen, SRB assay, 48 h; settings: Homo sapiens
Summary of the method: as §1

[17] = test system: UO-31 (renal); assay: NCI anticancer screen, SRB assay, 48 h; settings: Homo sapiens
Summary of the method: as §1

[18] = test system: Breast cancer cell lines; assay: NCI anticancer screen, SRB assay, panel summary; settings: Homo sapiens
Summary of the method: as §1

[19] = test system: CNS cancer cell lines; assay: NCI anticancer screen, SRB assay, panel summary; settings: for GI50: Homo sapiens
Summary of the method: as §1

[20] = test system: Colon cancer cell lines; assay: NCI anticancer screen, SRB assay, panel summary; settings: for GI50: Homo sapiens
Summary of the method: as §1

[21] = test system: Leukemia cancer cell lines; assay: NCI anticancer screen, SRB assay, panel summary; settings: Homo sapiens
Summary of the method: as §1

[22] = test system: Melanoma cancer cell lines; assay: NCI anticancer screen, SRB assay, panel summary; settings: for GI50: Homo sapiens
Summary of the method: as §1

[23] = test system: Non-small cell lung cancer cell lines; assay: NCI anticancer screen, SRB assay, panel summary; settings: Homo sapiens
Summary of the method: as §1

[24] = test system: Ovarian cancer cell lines; assay: NCI anticancer screen, SRB assay, panel summary; settings: Homo sapiens
Summary of the method: as §1

[25] = test system: Prostate cancer cell lines; assay: NCI anticancer screen, SRB assay, panel summary
Summary of the method: as §1

[26] = test system: Renal cancer cell lines; assay: NCI anticancer screen, SRB assay, panel summary; settings: Homo sapiens
Summary of the method: as §1

[27] = 48 h exposure, SRB, read-out: GI50
[28] = read-out: pGI50 (-log of molar concentration causing 50% inhibition of net cell growth) (converted)

COc1cc(/C=C/C(=O)c2cccc(-n3cc(-c4ccccc4)[nH]c3=O)c2)ccc1O [3a, 1-3-[(E)-3-(4-hydroxy-3-methoxyphenyl)-2-propenoyl]phenyl-4-phenyl-2,3-dihydro-1H-2-imidazolone]
GI50 [1, 27]: 1.35 µM
GI50 [1, 28]: 1.35 µM
GI50 [2, 27]: 1.68 µM
GI50 [2, 28]: 1.7 µM
GI50 [3, 27]: 3.85 µM
GI50 [3, 28]: 3.89 µM
GI50 [4, 27]: 1.4 µM
GI50 [4, 28]: 1.41 µM
GI50 [5, 27]: 1.55 µM
GI50 [5, 28]: 1.55 µM
GI50 [6, 27]: 2.14 µM
GI50 [6, 28]: 2.14 µM
GI50 [7, 27]: 3.39 µM
GI50 [7, 28]: 3.39 µM
GI50 [8, 27]: 5.19 µM
GI50 [8, 28]: 5.25 µM
GI50 ([9]; PC-3, read-out: pGI50 (-log of molar concentration causing 50% inhibition of net cell growth) (converted)): 2.51 µM
GI50 ([9]; one prostate cancer cell line (PC-3), exposure at least 48 hrs, read-out: GI50): 2.52 µM
GI50 [10, 27]: 1.67 µM
GI50 [10, 28]: 1.66 µM
GI50 ([11]; RXF 393, 48 h exposure, SRB, read-out: GI50): 2.27 µM
GI50 ([11]; RXF-393, read-out: pGI50 (-log of molar concentration causing 50% inhibition of net cell growth) (converted)): 2.29 µM
GI50 [12, 27]: 3.04 µM
GI50 [12, 28]: 3.02 µM
GI50 [13, 27]: 1.85 µM
GI50 [13, 28]: 1.86 µM
GI50 [14, 27]: 1.59 µM
GI50 [14, 28]: 1.58 µM
GI50 [15, 27]: 2.29 µM
GI50 [15, 28]: 2.29 µM
GI50 ([16]; U-251, 48 h exposure, SRB, read-out: GI50): 2.11 µM
GI50 ([16]; U-251, read-out: pGI50 (-log of molar concentration causing 50% inhibition of net cell growth) (converted)): 2.09 µM
GI50 [17, 27]: 2.18 µM
GI50 [17, 28]: 2.19 µM
GI50 ([18]; Breast panel, log of concentration in mol/L causing 50% inhibition of net cell growth, read-out: mean graph midpoint (MG_MID) of Log10 GI50 (converted)): 2.82 µM
LC50 ([18]; Breast panel, log of concentration leading to 50% net cell death, read-out: mean graph midpoint (MG_MID) of Log10 LC50 (converted)): 53.7 µM
GI50 ([18]; five breast cancer cell lines, exposure at least 48 hrs, read-out: GI50, range over the panel): 1.55 to 4.16 µM
mean graph midpoint (MG_MID) of Log10 LC50 ([19]; CNS panel, log of concentration leading to 50% net cell death): 4.62
GI50 ([19]; CNS panel, log of concentration in mol/L causing 50% inhibition of net cell growth, read-out: mean graph midpoint (MG_MID) of Log10 GI50 (converted)): 2.57 µM
GI50 ([19]; six CNS cancer cell lines, exposure at least 48 hrs, read-out: GI50, range over the panel): 1.91 to 3.9 µM
mean graph midpoint (MG_MID) of Log10 LC50 ([20]; Colon panel, log of concentration leading to 50% net cell death): 4.68
GI50 ([20]; Colon panel, log of concentration in mol/L causing 50% inhibition of net cell growth, read-out: mean graph midpoint (MG_MID) of Log10 GI50 (converted)): 2.14 µM
GI50 ([20]; seven colon cancer cell lines, exposure at least 48 hrs, read-out: GI50, range over the panel): 1.4 to 3.77 µM
GI50 ([21]; Leukemia panel, log of concentration in mol/L causing 50% inhibition of net cell growth, read-out: mean graph midpoint (MG_MID) of Log10 GI50 (converted)): 1.86 µM
LC50 ([21]; Leukemia panel, log of concentration leading to 50% net cell death, read-out: mean graph midpoint (MG_MID) of Log10 LC50 (converted)): 66.1 µM
GI50 ([21]; two leukemia cancer cell lines (RPMI-8226 and K-562), exposure at least 48 hrs, read-out: GI50, range over the panel): 1.67 to 2.04 µM
GI50 ([22]; Melanoma panel, log of concentration in mol/L causing 50% inhibition of net cell growth, read-out: mean graph midpoint (MG_MID) of Log10 GI50 (converted)): 2.57 µM
GI50 ([22]; nine melanoma cancer cell lines, exposure at least 48 hrs, read-out: GI50, range over the panel): 1.59 to 6.81 µM
mean graph midpoint (MG_MID) of Log10 LC50 ([22]; Melanoma panel, log of concentration leading to 50% net cell death): 4.06
GI50 ([23]; Non-small cell lung panel, log of concentration in mol/L causing 50% inhibition of net cell growth, read-out: mean graph midpoint (MG_MID) of Log10 GI50 (converted)): 2.57 µM
LC50 ([23]; Non-small cell lung panel, log of concentration leading to 50% net cell death, read-out: mean graph midpoint (MG_MID) of Log10 LC50 (converted)): 41.7 µM
GI50 ([23]; nine non-small cell lung cancer cell lines, exposure at least 48 hrs, read-out: GI50, range over the panel): 1.48 to 3.9 µM
GI50 ([24]; Ovarian panel, log of concentration in mol/L causing 50% inhibition of net cell growth, read-out: mean graph midpoint (MG_MID) of Log10 GI50 (converted)): 3.24 µM
LC50 ([24]; Ovarian panel, log of concentration leading to 50% net cell death, read-out: mean graph midpoint (MG_MID) of Log10 LC50 (converted)): 11.7 µM
GI50 ([24]; six ovarian cancer cell lines, exposure at least 48 hrs, read-out: GI50, range over the panel): 2.04 to 5.19 µM
GI50 ([25]; Homo sapiens, log of concentration in mol/L causing 50% inhibition of net cell growth, read-out: mean graph midpoint (MG_MID) of Log10 GI50 (converted)): 2.51 µM
LC50 ([25]; Homo sapiens, log of concentration leading to 50% net cell death, read-out: mean graph midpoint (MG_MID) of Log10 LC50 (converted)): ≥ 100 µM
mean graph midpoint (MG_MID) of Log10 TGI ([25]; log of concentration resulting in total inhibition of net cell growth): 5.13
GI50 ([26]; Renal panel, log of concentration in mol/L causing 50% inhibition of net cell growth, read-out: mean graph midpoint (MG_MID) of Log10 GI50 (converted)): 2.4 µM
LC50 ([26]; Renal panel, log of concentration leading to 50% net cell death, read-out: mean graph midpoint (MG_MID) of Log10 LC50 (converted)): 34.7 µM
GI50 ([26]; eight renal cancer cell lines, exposure at least 48 hrs, read-out: GI50, range over the panel): 1.35 to 5.29 µM
